Assay results as given in ChEMBL document CHEMBL4507276 (2021).

How the values were obtained:
[1] = target: Alpha-2B adrenergic receptor (Homo sapiens) (UniProt P18089); conditions: Compound concentration 10.0 uM
[2] = target: Alpha-1D adrenergic receptor (Homo sapiens) (UniProt P25100); experiment: ALPHA1D/H Eurofins-Panlabs selectivity data (BI); conditions: Compound concentration 10.0 uM
[3] = target: Dual specificity tyrosine-phosphorylation-regulated kinase 1B (Homo sapiens) (UniProt Q9Y463); experiment: DYRK1B Invitrogen selectivity data (BI); conditions: Compound concentration 3.0 uM
Chain of Dual specificity tyrosine-phosphorylation-regulated kinase 1B (Homo sapiens) (Q9Y463 whole entry, looked up): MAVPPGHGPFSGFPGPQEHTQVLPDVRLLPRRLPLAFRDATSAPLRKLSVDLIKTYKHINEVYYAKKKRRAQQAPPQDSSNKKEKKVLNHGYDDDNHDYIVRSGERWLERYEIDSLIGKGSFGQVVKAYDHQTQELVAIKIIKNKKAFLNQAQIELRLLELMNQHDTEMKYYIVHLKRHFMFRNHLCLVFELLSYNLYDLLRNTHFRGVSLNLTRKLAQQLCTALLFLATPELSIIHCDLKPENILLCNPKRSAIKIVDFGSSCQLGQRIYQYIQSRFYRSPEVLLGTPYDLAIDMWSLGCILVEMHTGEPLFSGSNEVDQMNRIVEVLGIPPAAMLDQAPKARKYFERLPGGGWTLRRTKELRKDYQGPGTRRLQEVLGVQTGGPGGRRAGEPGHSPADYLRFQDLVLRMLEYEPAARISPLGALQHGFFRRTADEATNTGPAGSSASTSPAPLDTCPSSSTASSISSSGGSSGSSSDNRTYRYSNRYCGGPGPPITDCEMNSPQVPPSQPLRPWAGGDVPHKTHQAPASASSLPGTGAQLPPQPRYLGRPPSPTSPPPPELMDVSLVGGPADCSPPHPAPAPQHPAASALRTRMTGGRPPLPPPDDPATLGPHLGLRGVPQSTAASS

[4] = target: cAMP-dependent protein kinase catalytic subunit alpha (Homo sapiens) (UniProt P17612); experiment: PRKACA Invitrogen selectivity data (BI); conditions: Compound concentration 3.0 uM
[5] = target: Glucocorticoid receptor (Homo sapiens) (UniProt P04150); experiment: GCORTICOID/H Cerep selectivity data (BI); conditions: Compound concentration 20.0 uM
[6] = target: NT-3 growth factor receptor (Homo sapiens) (UniProt Q16288); experiment: NTRK3 Invitrogen selectivity data (BI); conditions: Compound concentration 3.0 uM
[7] = target: Tyrosine-protein kinase BTK (Homo sapiens) (UniProt Q06187); experiment: BTK Invitrogen selectivity data (BI); conditions: Compound concentration 3.0 uM
Chain of Tyrosine-protein kinase BTK (Homo sapiens) (Q06187 whole entry): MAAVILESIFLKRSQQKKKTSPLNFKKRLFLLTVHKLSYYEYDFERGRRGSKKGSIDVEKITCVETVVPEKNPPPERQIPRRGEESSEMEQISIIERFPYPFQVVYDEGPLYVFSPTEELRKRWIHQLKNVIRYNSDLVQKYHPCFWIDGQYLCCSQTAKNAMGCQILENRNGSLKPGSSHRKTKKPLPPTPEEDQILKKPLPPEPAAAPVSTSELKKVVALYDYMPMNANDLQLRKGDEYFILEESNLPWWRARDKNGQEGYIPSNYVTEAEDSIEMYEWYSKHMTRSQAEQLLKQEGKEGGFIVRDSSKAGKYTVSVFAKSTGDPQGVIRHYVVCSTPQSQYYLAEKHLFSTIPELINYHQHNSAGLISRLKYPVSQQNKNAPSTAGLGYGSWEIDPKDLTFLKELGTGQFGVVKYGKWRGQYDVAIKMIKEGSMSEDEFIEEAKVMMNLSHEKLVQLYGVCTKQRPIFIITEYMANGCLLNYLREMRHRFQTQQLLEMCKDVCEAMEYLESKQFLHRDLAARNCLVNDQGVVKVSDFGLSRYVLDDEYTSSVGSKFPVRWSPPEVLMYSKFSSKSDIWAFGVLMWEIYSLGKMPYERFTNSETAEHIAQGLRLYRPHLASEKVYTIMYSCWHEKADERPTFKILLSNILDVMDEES

[8] = target: Testis-specific serine/threonine-protein kinase 2 (Homo sapiens) (UniProt Q96PF2); experiment: STK22B Invitrogen selectivity data (BI); conditions: Compound concentration 3.0 uM
[9] = target: Protein kinase C epsilon type (Homo sapiens) (UniProt Q02156); experiment: PRKCE Invitrogen selectivity data (BI); conditions: Compound concentration 3.0 uM
[10] = target: 5-hydroxytryptamine receptor 2B (Homo sapiens) (UniProt P41595); experiment: 5HT2B/H AG Cerep selectivity data (BI); conditions: filed as agonist, Compound concentration 20.0 uM
[11] = target: Histamine H1 receptor (Homo sapiens) (UniProt P35367); experiment: H1/H Eurofins-Panlabs selectivity data (BI); conditions: Compound concentration 10.0 uM
Chain of Histamine H1 receptor (Homo sapiens) (P35367 whole entry): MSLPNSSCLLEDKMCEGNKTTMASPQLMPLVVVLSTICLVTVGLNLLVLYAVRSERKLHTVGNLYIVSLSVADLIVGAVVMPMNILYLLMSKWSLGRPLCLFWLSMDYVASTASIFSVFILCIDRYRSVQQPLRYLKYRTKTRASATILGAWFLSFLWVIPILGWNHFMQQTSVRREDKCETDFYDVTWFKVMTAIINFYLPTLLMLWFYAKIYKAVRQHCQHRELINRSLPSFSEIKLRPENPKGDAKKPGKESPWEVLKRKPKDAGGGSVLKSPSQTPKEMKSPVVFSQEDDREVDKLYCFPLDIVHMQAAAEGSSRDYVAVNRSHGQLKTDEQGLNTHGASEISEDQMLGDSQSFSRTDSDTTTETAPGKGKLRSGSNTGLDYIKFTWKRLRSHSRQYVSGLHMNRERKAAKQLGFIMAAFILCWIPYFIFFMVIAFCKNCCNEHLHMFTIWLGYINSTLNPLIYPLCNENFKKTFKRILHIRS

[12] = target: T1, Dual specificity mitogen-activated protein kinase kinase 6 (Homo sapiens) (UniProt P52564); experiment: MAP2K6_S_T_E Invitrogen selectivity data (BI); conditions: Compound concentration 3.0 uM
T1 sequence (whole entry): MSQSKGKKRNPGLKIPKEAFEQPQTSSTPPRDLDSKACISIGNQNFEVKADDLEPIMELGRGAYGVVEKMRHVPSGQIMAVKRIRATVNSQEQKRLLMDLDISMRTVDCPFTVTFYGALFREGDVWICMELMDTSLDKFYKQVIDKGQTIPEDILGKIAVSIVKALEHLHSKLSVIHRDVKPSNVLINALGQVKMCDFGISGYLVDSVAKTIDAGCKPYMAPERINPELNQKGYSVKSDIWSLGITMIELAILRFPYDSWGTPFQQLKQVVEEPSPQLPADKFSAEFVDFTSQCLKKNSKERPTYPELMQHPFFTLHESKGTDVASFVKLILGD

[13] = target: T2, Mitogen-activated protein kinase kinase kinase 3 (Homo sapiens) (UniProt Q99759); experiment: MAP3K3 Invitrogen selectivity data (BI); conditions: Compound concentration 3.0 uM
T2 sequence (whole entry): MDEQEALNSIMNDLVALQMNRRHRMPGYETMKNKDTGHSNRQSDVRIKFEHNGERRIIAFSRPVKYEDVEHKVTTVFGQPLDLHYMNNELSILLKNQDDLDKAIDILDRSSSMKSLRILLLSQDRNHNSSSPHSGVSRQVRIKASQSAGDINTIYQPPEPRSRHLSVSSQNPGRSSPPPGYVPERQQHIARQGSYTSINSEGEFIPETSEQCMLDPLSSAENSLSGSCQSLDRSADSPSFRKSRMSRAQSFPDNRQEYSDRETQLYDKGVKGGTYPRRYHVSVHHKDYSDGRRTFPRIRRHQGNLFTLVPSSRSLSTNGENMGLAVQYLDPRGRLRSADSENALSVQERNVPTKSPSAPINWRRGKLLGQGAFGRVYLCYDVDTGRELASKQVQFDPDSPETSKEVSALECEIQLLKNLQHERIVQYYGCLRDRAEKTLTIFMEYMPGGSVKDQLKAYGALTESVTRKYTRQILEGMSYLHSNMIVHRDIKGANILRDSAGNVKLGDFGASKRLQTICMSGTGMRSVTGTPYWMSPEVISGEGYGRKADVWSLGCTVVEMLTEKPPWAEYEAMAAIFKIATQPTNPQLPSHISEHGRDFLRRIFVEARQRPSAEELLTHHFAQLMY

[14] = target: Dual specificity tyrosine-phosphorylation-regulated kinase 1A (Homo sapiens) (UniProt Q13627); experiment: DYRK1A Invitrogen selectivity data (BI); conditions: Compound concentration 3.0 uM
[15] = target: Glutamate NMDA receptor (Rattus norvegicus) (UniProt P35439+Q00959+Q00960+Q00961+Q62645+Q8VHN2+Q9R1M7); experiment: NMDAAGSI/RA Eurofins-Panlabs selectivity data (BI); format: protein-complex assay; conditions: filed as agonist, Compound concentration 10.0 uM
[16] = target: Serine/threonine-protein kinase PAK 4 (Homo sapiens) (UniProt O96013); experiment: PAK4 Invitrogen selectivity data (BI); conditions: Compound concentration 3.0 uM
[17] = target: AMP-activated protein kinase (AMPK) alpha-1/beta-1/gamma-1 (Homo sapiens) (UniProt P54619+Q9Y478+Q13131); experiment: AMPK A1B1G1 Invitrogen selectivity data (BI); format: protein-complex assay; conditions: Compound concentration 3.0 uM
[18] = target: Phosphatidylinositol 4-phosphate 3-kinase C2 domain-containing subunit alpha (Homo sapiens) (UniProt O00443); experiment: PIK3C2A Invitrogen selectivity data (BI); conditions: Compound concentration 3.0 uM
[19] = target: D(3) dopamine receptor (Homo sapiens) (UniProt P35462); experiment: D3/HU Eurofins-Panlabs selectivity data (BI); conditions: Compound concentration 10.0 uM
Chain of D(3) dopamine receptor (Homo sapiens) (P35462 whole entry): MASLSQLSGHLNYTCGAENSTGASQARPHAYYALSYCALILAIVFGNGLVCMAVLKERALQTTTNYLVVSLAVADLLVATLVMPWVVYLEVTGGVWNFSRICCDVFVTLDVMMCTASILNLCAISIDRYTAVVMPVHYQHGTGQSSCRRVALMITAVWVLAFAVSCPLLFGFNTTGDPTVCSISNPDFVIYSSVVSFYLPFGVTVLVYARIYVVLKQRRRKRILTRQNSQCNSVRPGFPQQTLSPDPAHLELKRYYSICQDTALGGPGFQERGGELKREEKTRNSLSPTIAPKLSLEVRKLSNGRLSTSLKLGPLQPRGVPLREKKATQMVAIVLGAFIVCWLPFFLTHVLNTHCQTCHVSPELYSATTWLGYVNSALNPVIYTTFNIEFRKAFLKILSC

[20] = target: Beta-2 adrenergic receptor (Homo sapiens) (UniProt P07550); experiment: BETA2/HUM Cerep selectivity data (BI); conditions: filed as antagonist, Compound concentration 20.0 uM
[21] = target: Beta-1 adrenergic receptor (Homo sapiens) (UniProt P08588); experiment: BETA1/HUM Cerep selectivity data (BI); conditions: Compound concentration 20.0 uM
Chain of Beta-1 adrenergic receptor (Homo sapiens) (P08588 whole entry, looked up): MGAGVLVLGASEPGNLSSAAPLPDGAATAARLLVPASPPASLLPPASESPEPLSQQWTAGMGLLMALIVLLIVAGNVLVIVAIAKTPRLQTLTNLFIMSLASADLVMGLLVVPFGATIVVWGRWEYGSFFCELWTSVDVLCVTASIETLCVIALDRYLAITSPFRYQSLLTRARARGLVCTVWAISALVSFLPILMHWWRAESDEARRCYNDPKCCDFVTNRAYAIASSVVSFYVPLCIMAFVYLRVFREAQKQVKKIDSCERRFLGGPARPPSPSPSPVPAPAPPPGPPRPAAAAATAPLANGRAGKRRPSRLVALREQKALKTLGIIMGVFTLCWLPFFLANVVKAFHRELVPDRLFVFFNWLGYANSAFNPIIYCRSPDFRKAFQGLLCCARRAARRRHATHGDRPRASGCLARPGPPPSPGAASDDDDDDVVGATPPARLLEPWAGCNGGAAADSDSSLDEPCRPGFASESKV

[22] = target: Platelet-activating factor receptor (Homo sapiens) (UniProt P25105); experiment: PAF Cerep selectivity data (BI); conditions: filed as agonist, Compound concentration 20.0 uM
[23] = target: Tyrosine-protein kinase Fgr (Homo sapiens) (UniProt P09769); experiment: FGR Invitrogen selectivity data (BI); conditions: Compound concentration 3.0 uM
[24] = tested on: Mast/stem cell growth factor receptor Kit (Homo sapiens), P10721 [V654A]; experiment: KIT_V654A Invitrogen selectivity data (BI); conditions: Compound concentration 3.0 uM
Chain of Mast/stem cell growth factor receptor Kit (Homo sapiens), P10721 [V654A] (P10721 whole entry V654A): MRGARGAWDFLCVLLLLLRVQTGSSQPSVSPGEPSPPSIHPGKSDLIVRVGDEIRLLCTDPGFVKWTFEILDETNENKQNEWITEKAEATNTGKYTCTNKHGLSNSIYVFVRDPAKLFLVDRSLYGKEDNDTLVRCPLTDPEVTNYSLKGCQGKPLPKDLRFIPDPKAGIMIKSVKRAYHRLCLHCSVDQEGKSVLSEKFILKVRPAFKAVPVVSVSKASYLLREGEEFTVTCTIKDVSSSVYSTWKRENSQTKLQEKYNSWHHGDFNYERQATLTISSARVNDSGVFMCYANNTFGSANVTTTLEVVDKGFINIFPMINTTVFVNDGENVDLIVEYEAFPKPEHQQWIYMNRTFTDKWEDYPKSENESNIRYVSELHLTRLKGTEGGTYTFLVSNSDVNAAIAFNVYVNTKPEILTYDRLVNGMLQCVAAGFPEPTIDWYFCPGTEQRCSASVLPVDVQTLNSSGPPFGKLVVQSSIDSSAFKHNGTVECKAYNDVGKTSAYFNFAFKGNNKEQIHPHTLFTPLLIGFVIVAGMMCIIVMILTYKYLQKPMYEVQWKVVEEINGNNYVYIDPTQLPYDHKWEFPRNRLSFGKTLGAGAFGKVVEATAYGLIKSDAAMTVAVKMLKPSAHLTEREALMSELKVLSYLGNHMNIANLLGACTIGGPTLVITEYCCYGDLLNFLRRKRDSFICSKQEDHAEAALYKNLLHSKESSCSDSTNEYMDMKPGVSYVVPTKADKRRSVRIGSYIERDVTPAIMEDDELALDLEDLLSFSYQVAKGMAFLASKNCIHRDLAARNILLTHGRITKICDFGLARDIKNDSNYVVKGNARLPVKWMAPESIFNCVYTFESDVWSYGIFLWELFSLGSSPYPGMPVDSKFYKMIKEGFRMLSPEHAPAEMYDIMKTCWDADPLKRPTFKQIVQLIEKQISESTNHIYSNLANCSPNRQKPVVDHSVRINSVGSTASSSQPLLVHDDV

[25] = target: Type-2 angiotensin II receptor (Homo sapiens) (UniProt P50052); experiment: AT2/H Cerep selectivity data (BI); conditions: Compound concentration 20.0 uM
Chain of Type-2 angiotensin II receptor (Homo sapiens) (P50052 whole entry): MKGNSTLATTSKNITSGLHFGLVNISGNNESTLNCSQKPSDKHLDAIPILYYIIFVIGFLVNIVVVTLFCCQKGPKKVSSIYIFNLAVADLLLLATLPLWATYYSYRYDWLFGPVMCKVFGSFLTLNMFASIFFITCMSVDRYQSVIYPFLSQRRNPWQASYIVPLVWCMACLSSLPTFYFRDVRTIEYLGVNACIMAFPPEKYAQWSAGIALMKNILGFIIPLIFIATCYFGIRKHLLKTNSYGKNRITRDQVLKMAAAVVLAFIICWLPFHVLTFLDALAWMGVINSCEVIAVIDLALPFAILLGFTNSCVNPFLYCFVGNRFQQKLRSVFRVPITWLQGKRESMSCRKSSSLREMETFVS

[26] = target: Type-1 angiotensin II receptor (Homo sapiens) (UniProt P30556); experiment: AT1/H Cerep selectivity data (BI); conditions: filed as antagonist, Compound concentration 20.0 uM
Chain of Type-1 angiotensin II receptor (Homo sapiens) (P30556 whole entry): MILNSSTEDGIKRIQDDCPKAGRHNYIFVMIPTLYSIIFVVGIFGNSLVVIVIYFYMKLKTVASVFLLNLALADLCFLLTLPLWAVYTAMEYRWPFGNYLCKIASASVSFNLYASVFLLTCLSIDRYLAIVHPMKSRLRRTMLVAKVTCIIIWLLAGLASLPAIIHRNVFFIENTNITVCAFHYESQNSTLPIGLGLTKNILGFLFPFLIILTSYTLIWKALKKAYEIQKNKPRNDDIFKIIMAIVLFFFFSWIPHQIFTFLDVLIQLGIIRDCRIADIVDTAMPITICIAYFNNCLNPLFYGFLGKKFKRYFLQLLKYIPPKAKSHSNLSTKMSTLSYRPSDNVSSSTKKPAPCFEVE

[27] = target: Apelin receptor (Homo sapiens) (UniProt P35414); experiment: APJH_AGON Cerep selectivity data (BI); conditions: filed as agonist, Compound concentration 20.0 uM
[28] = target: Macrophage-stimulating protein receptor (Homo sapiens) (UniProt Q04912); experiment: MST1R Invitrogen selectivity data (BI); conditions: Compound concentration 3.0 uM
[29] = target: Proto-oncogene tyrosine-protein kinase Src (Homo sapiens) (UniProt P12931); experiment: SRC N1 Invitrogen selectivity data (BI); conditions: Compound concentration 3.0 uM
[30] = target: Serine/threonine-protein kinase PAK 5 (Homo sapiens) (UniProt Q9P286); experiment: PAK7 Invitrogen selectivity data (BI); conditions: Compound concentration 3.0 uM

Chain of Alpha-1D adrenergic receptor (Homo sapiens) (P25100 whole entry): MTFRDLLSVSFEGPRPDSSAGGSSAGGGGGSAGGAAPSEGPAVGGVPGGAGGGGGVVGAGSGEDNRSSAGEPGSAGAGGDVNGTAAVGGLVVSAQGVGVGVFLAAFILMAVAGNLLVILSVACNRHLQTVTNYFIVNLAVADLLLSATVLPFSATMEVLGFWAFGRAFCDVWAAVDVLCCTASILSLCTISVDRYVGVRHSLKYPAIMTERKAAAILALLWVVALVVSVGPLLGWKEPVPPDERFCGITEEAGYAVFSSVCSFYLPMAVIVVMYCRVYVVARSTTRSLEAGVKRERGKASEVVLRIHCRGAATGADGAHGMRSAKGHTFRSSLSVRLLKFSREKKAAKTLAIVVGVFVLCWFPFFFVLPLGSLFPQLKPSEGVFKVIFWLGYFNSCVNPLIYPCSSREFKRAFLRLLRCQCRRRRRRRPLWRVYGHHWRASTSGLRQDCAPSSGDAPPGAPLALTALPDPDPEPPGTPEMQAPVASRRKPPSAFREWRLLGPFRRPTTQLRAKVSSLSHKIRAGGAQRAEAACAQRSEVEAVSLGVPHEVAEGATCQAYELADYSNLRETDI

CN(C)C(=O)Cn1cc(-c2nc(C3(c4ccc(-c5cnc(N)nc5)cc4)CC3)no2)cn1 [BI 0153]
inactive: inhibition [1] -3.57%

CN(C)C(=O)Cn1cc(-c2nc([C@@](C)(c3ccc(-c4cnc(N)nc4)cc3)C3CC3)no2)cn1 [BI 665915]
inactive: residual activity [2] 107% | residual activity [3] 104% | residual activity [4] 104% | residual activity [5] 96% | residual activity [6] 93% | residual activity [7] 89.5% | residual activity [8] 93% | residual activity [9] 86.5% | residual activity [10] 103% | residual activity [11] 103% | residual activity [12] 100% | residual activity [13] 101% | residual activity [14] 100% | residual activity [15] 102% | residual activity [16] 93.5% | residual activity [17] 104% | residual activity [18] 104% | residual activity [19] 97% | residual activity [20] 98% | residual activity [21] 100% | residual activity [22] 65% | residual activity [23] 90.5% | residual activity [24] 95% | residual activity [25] 98% | residual activity [26] 108% | residual activity [27] 101% | residual activity [28] 95% | residual activity [29] 85% | residual activity [30] 97%
